Data as given in patent US20150011423A1, “MEANS AND METHODS FOR ASSESSING KIDNEY TOXICITY” (BASF SE, priority 2011, published 2015).
Like-named read-outs stand apart in the source and are kept apart here. Marks after values point to notes of the source that are not given here. Blank lines part the entries; values can stand above or below the compound they belong to.

How the values were obtained:
[1] = system: rats; details: rat, in vivo
[2] = system: rats; assay: 28-day repeated dose study in rats with mass spectrometry-based plasma metabolite profiling (GC-MS, LC-MS, SPE-LC-MS); treatment ratios versus control; details: plasma; for Glutamate, treatment ratio versus control / Lysophosphatidylcholine (C20:4), treatment ratio versus control / Malate, treatment ratio versus control: Table 1d diuretic effect
[3] = female rats, day 28, high dose, Table 5a tubular necrosis
[4] = female rats, day 28, high dose, Table 5b tubular necrosis
[5] = female rats, day 28, high dose, Table 1a diuretic effect
[6] = female rats, day 28, high dose, Table 1b diuretic effect
[7] = male rats, day 7, high dose, Table 1c diuretic effect
[8] = male rats, day 14, high dose, Table 1c diuretic effect
[9] = male rats, day 28, high dose, Table 1c diuretic effect

- Leucine, treatment ratio versus control [1]: 1.26 *
Structure (SMILES): NC[C@H]1O[C@H](O[C@H]2[C@H](O)[C@@H](O[C@H]3O[C@H](CO)[C@@H](O)[C@H](N)[C@H]3O)[C@H](N)C[C@@H]2N)[C@H](N)C[C@@H]1O [Tobramycin s.c., Tobramycin]
- Docosahexaenoic acid (C22:cis[4,7,10,13,16,19]6), treatment ratio versus control [2, 3]: 1.05 *
- Docosapentaenoic acid (C22:cis[7,10,13,16,19]5), treatment ratio versus control [2, 3]: 1.56 *
- Eicosanoic acid (C20:0), treatment ratio versus control [2, 3]: 1.05
- Glycerol, lipid fraction, treatment ratio versus control [2, 3]: 1.2 *
- Phosphate (inorganic and organic phosphates), treatment ratio versus control [2, 3]: 1.3 *
- Hippuric acid, treatment ratio versus control [2, 4]: 0.14 *
- Lactate, treatment ratio versus control [2, 4]: 0.64 *

- Glutamate, treatment ratio versus control [1]: 1.04^
- Glycine, treatment ratio versus control [1]: 1.32 *
- Histidine, treatment ratio versus control [1]: 1.25 *
- Valine, treatment ratio versus control [1]: 1.29 *
- Pantothenic acid, treatment ratio versus control [2, 5]: 1.72 *
- Proline, treatment ratio versus control [2, 5]: 1.57
- Threonic acid, treatment ratio versus control [2, 5]: 1.14
- trans-4-Hydroxyproline, treatment ratio versus control [2, 5]: 1.91 *
- 18-Hydroxy-11-deoxycorticosterone, treatment ratio versus control [2, 6]: 0.5 *
- Creatinine, treatment ratio versus control [2, 6]: 0.8 *
- Hippuric acid, treatment ratio versus control [2, 6]: 0.28 *
- Ceramide (d18:1, C24:0), treatment ratio versus control [2, 7]: 0.92^
- Ceramide (d18:1, C24:1), treatment ratio versus control [2, 7]: 0.75^
- Glutamate, treatment ratio versus control ([2]; male rats, day 7, high dose): 0.64 *
- Lysophosphatidylcholine (C20:4), treatment ratio versus control ([2]; male rats, day 7, high dose): 0.71 *
- Malate, treatment ratio versus control ([2]; male rats, day 7, high dose): 0.76 *
- Ceramide (d18:1, C24:0), treatment ratio versus control [2, 8]: 1.56 *
- Ceramide (d18:1, C24:1), treatment ratio versus control [2, 8]: 1.94 *
- Lysophosphatidylcholine (C20:4), treatment ratio versus control ([2]; male rats, day 14, high dose): 0.87 *
- Malate, treatment ratio versus control ([2]; male rats, day 14, high dose): 0.9
- Ceramide (d18:1, C24:0), treatment ratio versus control [2, 9]: 0.95
- Ceramide (d18:1, C24:1), treatment ratio versus control [2, 9]: 1.17
- Choline plasmalogen No 02, treatment ratio versus control [2, 9]: 1
- Choline plasmalogen No 03, treatment ratio versus control [2, 9]: 1.03
- Glutamate, treatment ratio versus control ([2]; male rats, day 28, high dose): 0.74 *
- Lysophosphatidylcholine (C20:4), treatment ratio versus control ([2]; male rats, day 28, high dose): 0.81 *
- Malate, treatment ratio versus control ([2]; male rats, day 28, high dose): 0.72 *
Structure (SMILES): Cn1c(=O)c2[nH]cnc2n(C)c1=O [Theophylline]

- Ceramide (d18:1, C24:0), treatment ratio versus control [1]: 1.33 *
- Choline plasmalogen No 03, treatment ratio versus control [1]: 1.08 *
- Ceramide (d18:1, C24:0), treatment ratio versus control [2, 7]: 0.84^
- Choline plasmalogen No 02, treatment ratio versus control [2, 7]: 1.38 *
- Glutamate, treatment ratio versus control ([2]; male rats, day 7, high dose): 0.74 *
- Lysophosphatidylcholine (C20:4), treatment ratio versus control ([2]; male rats, day 7, high dose): 0.8 *
- Ceramide (d18:1, C24:0), treatment ratio versus control [2, 8]: 1.35 *
- Choline plasmalogen No 03, treatment ratio versus control [2, 8]: 1.1
- Threonine, treatment ratio versus control [2, 8]: 1.53 *
- Glutamate, treatment ratio versus control ([2]; male rats, day 14, high dose): 0.94 *
- Lysophosphatidylcholine (C20:4), treatment ratio versus control ([2]; male rats, day 14, high dose): 0.86 *
- Ceramide (d18:1, C24:1), treatment ratio versus control [2, 9]: 1.52^
- Choline plasmalogen No 03, treatment ratio versus control [2, 9]: 1.1 *
- Sphingomyelin (d18:2, C16:0), treatment ratio versus control [2, 9]: 1.9 *
- Glutamate, treatment ratio versus control ([2]; male rats, day 28, high dose): 0.87 *
- Lysophosphatidylcholine (C20:4), treatment ratio versus control ([2]; male rats, day 28, high dose): 0.8 *
Structure (SMILES): Cn1cnc2c1c(=O)[nH]c(=O)n2C [Theobromine]
